In one test the target is CDK1 (Homo sapiens, UniProt P06493). Put plainly: Recombinant mitotic kinase assay, CDK1. It counts as biochemical. Particulars: recombinant kinases. The procedure:
(§1) […] assays were performed with recombinant protein of the indicated mitotic kinase (left) and AMPK family kinases (right) in the presence of THZ-4-63-1. […] Cells were treated with nocodazole (100 ng/ml) for 18 h or not treated (Asyn., asynchronous). Nocodazole-arrested mitotic cells (M) were isolated via shake-off. The attached cells enriched in G2 phase (G2) were harvested. A portion of the mitotic cells were washed off nocodazole and released into G1 phase after 4 hours of incubation (G1). […] In Panel D, mitotic lysates were prepared from the indicated cells, and treated with λ-phosphatase at 30° C. In Panel E, nocodazole-arrested mitotic cells were treated with increasing concentration of THZ-4-63-1 for 30 min. Cell lysates were subjected to immunoblotting.
(§2) To discover a selective MELK inhibitor, a few molecule scaffolds with the potential of binding to MELK were identified, including 2,4-disubstituted pyrimidines and benzonaphthyridinones. […] To investigate if THZ-4-63-1 confers selective inhibition on MELK, we tested its effect on other mitotic kinases. In assays using recombinant kinases, MELK kinase activity was 20-fold more sensitive to THZ-4-63-1, than that of Aurora A, Aurora B, CDK1, or PLK1 (FIG. 1B).

Another test has as its target T1, BRSK1 (Homo sapiens, UniProt Q8TDC3).
T1 sequence (Q8TDC3 1-778): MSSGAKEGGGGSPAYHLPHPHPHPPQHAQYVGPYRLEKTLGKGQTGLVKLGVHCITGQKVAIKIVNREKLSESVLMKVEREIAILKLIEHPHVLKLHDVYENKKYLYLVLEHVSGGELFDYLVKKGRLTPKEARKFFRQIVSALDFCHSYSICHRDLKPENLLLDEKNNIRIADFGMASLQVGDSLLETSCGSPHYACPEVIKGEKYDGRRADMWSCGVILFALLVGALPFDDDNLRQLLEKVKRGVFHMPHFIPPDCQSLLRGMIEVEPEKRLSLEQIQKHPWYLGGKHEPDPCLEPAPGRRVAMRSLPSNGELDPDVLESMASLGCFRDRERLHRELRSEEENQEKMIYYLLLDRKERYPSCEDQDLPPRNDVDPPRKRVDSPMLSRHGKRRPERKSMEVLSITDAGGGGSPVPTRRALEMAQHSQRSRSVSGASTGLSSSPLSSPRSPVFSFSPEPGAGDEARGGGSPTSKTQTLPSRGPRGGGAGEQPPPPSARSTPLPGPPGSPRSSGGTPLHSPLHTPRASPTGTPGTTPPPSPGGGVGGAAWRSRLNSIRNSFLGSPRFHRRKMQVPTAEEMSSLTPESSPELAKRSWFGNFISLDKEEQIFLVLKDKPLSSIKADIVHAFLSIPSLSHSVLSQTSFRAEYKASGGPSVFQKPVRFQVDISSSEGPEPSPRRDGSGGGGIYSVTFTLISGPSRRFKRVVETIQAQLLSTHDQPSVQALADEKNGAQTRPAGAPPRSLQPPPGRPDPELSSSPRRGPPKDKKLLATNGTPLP
Kind of test: Recombinant AMPK family kinase assay, BRSK1. It counts as biochemical. As to conditions: recombinant kinases. The procedure:
as §1, §2

A further test has as its system Aurora kinases. Put plainly: Aurora kinase phosphorylation in mitotic cells, immunoblotting. As to conditions: 30 min. It counts as cell-based. The procedure: Cell lysates were subjected to immunoblotting. […] The fluorescent signals of immunblotting were quantified using Image Studio Lite software (Licor Biosciences, Lincoln, Neb.). The signal of phosphorylated Aurora kinases was normalized to that of loading control (α-tubulin).
Cell lysates were prepared for immunoblotting. In Panels B and C, THZ-4-63-1 inhibits H3T3 phosphorylation in HeLa (B) and U2OS (C) cells. Nocodazole arrested mitotic cells were treated with THZ-4-63-1 at the indicated doses for 30 min. […] Cell lysates were subjected to immunblotting. The signal of H3T3 phosphorylation was normalized to that of α-tubulin (right).
We next proceeded to test if THZ-4-63-1 inhibits MELK activity in vivo. With a lack of established kinase substrates of MELK during mitosis, we used the auto-phosphorylation of MELK as a surrogate to indicate the activity of MELK. […] We then harvested nocodazole-arrested mitotic cells, and treated cells with increasing concentrations of THZ-4-63-1.
We exposed paclitaxel- or nocodazole-arrested mitotic cells to the individual inhibitor for 30 min in the presence of MG132, and collected lysates for examining signaling involved in chromosome alignment. […] Recent studies unravel a novel role of Aurora B in phosphorylating Haspin^7, a major factor responsible for phosphorylating Histone H3 at Thr3^14. […]

In test [1] the test system is Histone H3 phosphorylation at Thr3. Put plainly: Histone H3 Thr3 phosphorylation in arrested mitotic cells, immunoblotting. As to conditions: paclitaxel- or nocodazole-arrested mitotic cells, 30 min, with MG132. It counts as cell-based. The procedure:
Cell lysates were prepared for immunoblotting. […] HeLa cells were treated with DMSO or THZ-4-63-1 (5 μM) for 4 h followed by 1 h treatment of MG132 (10 μM). Cells were fixed and stained with anti-H3T3ph and anti-CREST. […] Cells were treated as in FIG. 2, Panel D, and additionally treated with MG132 (10 μM) for 1 h before fixation. The histogram indicates the quantification of H3S10ph signal. […] MCF-10A cells stably expressing empty vector (EV) or MELK were fixed for immunostaining. Images were captured with identical exposure time. H3T3ph intensity was quantified by the use of ImageJ. […] Recombinant MELK protein (kinase domain) was incubated with recombinant Histone H3 for 30 min at 30° C. Samples were subjected to immunoblotting using the indicated antibodies. […] Cells stably expressing GFP-MELK were fixed by formaldehyde and stained with anti-H3S10ph. […] Asynchronized (Async.) or nocodazole-arrested mitotic cells were subjected to fractionation, with sample prepared for immunoblotting. Panels H and I are images showing that MELK inhibition impairs the localization of chromosome passenger complex (CPC), indicated by the immunofluorescence detecting Survivin (G) and Aurora B (H). In addition to the presence of doxycyclin or THZ-4-63-1, cells were treated with nocodazole (0.33 μM) and MG132 (10 μM) for 3 h before fixation.
Cell lysates were prepared for immunoblotting. […]
On the technique in general: A western blot detects proteins with antibodies after separation by electrophoresis.

In test [2] the test system is chromosome passenger complex (Survivin, Aurora B). Kind of test: Localization of chromosome passenger complex, immunofluorescence. It counts as cell-based. Particulars: with nocodazole (0.33 μM) and MG132 (10 μM) 3 h. The procedure: Cell lysates were prepared for immunoblotting. […] HeLa cells were treated with DMSO or THZ-4-63-1 (5 μM) for 4 h followed by 1 h treatment of MG132 (10 μM). Cells were fixed and stained with anti-H3T3ph and anti-CREST. […] Cells were treated as in FIG. 2, Panel D, and additionally treated with MG132 (10 μM) for 1 h before fixation. The histogram indicates the quantification of H3S10ph signal. […] MCF-10A cells stably expressing empty vector (EV) or MELK were fixed for immunostaining. Images were captured with identical exposure time. H3T3ph intensity was quantified by the use of ImageJ. […] Recombinant MELK protein (kinase domain) was incubated with recombinant Histone H3 for 30 min at 30° C. Samples were subjected to immunoblotting using the indicated antibodies. […] Cells stably expressing GFP-MELK were fixed by formaldehyde and stained with anti-H3S10ph. […] Asynchronized (Async.) or nocodazole-arrested mitotic cells were subjected to fractionation, with sample prepared for immunoblotting. Panels H and I are images showing that MELK inhibition impairs the localization of chromosome passenger complex (CPC), indicated by the immunofluorescence detecting Survivin (G) and Aurora B (H). In addition to the presence of doxycyclin or THZ-4-63-1, cells were treated with nocodazole (0.33 μM) and MG132 (10 μM) for 3 h before fixation. […]

Entries after “also recorded” stand apart in the source; their conditions may differ.

Sequence of CDK1 (P06493 whole entry, species assumed): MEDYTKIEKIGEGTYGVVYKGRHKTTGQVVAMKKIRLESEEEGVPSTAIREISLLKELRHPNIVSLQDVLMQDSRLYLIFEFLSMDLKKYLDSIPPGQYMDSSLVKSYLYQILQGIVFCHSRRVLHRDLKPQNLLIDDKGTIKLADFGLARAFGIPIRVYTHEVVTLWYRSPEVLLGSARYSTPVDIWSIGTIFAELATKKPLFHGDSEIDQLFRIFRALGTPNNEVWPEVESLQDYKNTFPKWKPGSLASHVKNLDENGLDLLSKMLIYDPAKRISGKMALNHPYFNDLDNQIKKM
Sequence of CDK1 (P14635 whole entry partner, species assumed): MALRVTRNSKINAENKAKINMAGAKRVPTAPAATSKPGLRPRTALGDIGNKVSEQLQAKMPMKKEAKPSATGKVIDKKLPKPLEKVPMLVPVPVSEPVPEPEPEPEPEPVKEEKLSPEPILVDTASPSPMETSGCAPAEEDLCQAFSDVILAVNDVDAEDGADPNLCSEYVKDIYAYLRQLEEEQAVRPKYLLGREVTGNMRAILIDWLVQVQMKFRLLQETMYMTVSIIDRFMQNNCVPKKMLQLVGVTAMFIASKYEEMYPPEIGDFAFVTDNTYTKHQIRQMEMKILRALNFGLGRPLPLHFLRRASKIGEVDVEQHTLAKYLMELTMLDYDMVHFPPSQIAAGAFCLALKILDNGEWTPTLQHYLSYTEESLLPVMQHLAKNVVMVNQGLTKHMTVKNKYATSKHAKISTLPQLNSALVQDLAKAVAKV

For `CN(C)Cc1ccc(-n2c(=O)ccc3cnc4ccc(-c5cc(Cl)c(O)c(Cl)c5)cc4c32)cc1` [THZ-4-63-1], on CDK1, the “MELK kinase activity more sensitive than that of CDK1” value stood at 20 fold. The “Selectivity for MELK over BRSK1” value at BRSK1 is “preferentially targets MELK”. Moreover, the “Phosphorylation of Aurora kinases” value in the test on Aurora kinases is “lack of obvious inhibition; also recorded: did not inhibit”. Moreover, in test [1], the “Histone H3 phosphorylation at Thr3” value is listed as “strong suppression”. Besides, the “Centromeric localization of CPC subunits Survivin and Aurora B” value in test [2] is reported as “became diffusive”.

The values above are taken from patent US10544138B2, “Tricyclic kinase inhibitors of MELK and methods of use” (Dana-Farber Cancer Institute, Inc., priority 2015, dated 2020).
